Results reported in US20220241413A1, “COMBINATION THERAPIES USING CD-38 ANTIBODIES” (Takeda Pharmaceutical Company Limited, priority 2019, published 2022).

Assays:
Type in all cases: in vivo, human
[1] = test system: relapsed and refractory multiple myeloma (RRMM); test: AB79-1501 study, AB79 monotherapy SC in RRMM: disease response; conditions: at the RP2D, anti-CD38 naïve patients who received at least cycle 1
Source text: The AB79-1501 study is a Phase 1b/2a multicenter, open-label, dose-escalation, single-arm study in patients with relapsed and refractory multiple myeloma (RRMM), who were previously treated with at least a proteasome inhibitor (PI), an immunomodulatory drug (IMiD), an alkylating agent, and a steroid. Patients eligible for study enrollment are refractory or intolerant to at least one PI and at least one IMiD, and have received either ≥3 prior therapies or ≥2 prior therapies, if one of those therapies included a combination of a PI and an IMiD. In the phase 1b dose-escalation part of the study, patients who were previously exposed to an anti-CD38 agent are eligible; however, this criterion is not required. In the phase 2a expansion part of the study, patients were also refractory to at least one anti-CD38 monoclonal therapy at any time during prior treatment. The study was designed to evaluate the safety and tolerability of subcutaneously administered AB79 monotherapy in patients with RRMM, to determine the recommended phase 2 dose (RP2D), and to provide a preliminary assessment of its single-agent activity against RRMM, including in patients who are refractory to daratumumab. Parameters such as safety, tolerability, pharmacokinetics (PK), pharmacodynamics, and disease response were assessed.
As of the data cutoff, nineteen (19) patients were treated in the dose-escalation portion of the ongoing study in patients with RRMM and have completed at least 1 cycle: 4 patients in the first cohort (45 mg); 3 patients in the second cohort (135 mg); 6 patients in the third cohort (300 mg); and 6 patients in the fourth cohort (600 mg). The most common TEAEs (in ≥10% of patients) regardless of causality in the total population as of this date are fatigue and upper respiratory infection (27% each), insomnia (22%), diarrhea and nausea (17% each), headache and anemia (15% each), neutropenia, abdominal distension, back pain, and hypertension (12% each), cough and pneumonia (10% each). […] The RP2D was determined to be 600 mg with AB79 monotherapy. […]

[2] = test system: peripheral blood NK cells; test: Phase 1 study in healthy subjects (AB79-101): NK cell levels; conditions: all subjects receiving a single 0.06 mg/kg IV dose
Method: In a phase 1 study in healthy subjects (Study AB79-101), AB79 reduced the levels of peripheral blood and natural killer (NK) cells >90% from baseline in all subjects receiving a single 0.06 mg/kg IV dose of AB79, with a maximum observed concentration (Cmax) of 0.1 μg/mL. (U.S. Pat. No. 8,362,211; U.S. International Patent Application Serial Nos. PCT/US2019/013547 and PCT/US2019/024431). […] Potent reduction of plasmablasts was observed across cohorts of patients in the RRMM trial (Study AB79-1501). […] Consequently, AB79 may be more efficient at eliminating cells expressing high levels of CD38, which could manifest as higher activity on tumor cells (e.g., improved and deeper response rates across a population of patients with myeloma).
AB79 IV reduced the levels of peripheral blood NK cells >90% from baseline levels in all subjects receiving a single 0.06 mg/kg IV dose, with a Cmax of 0.1 μg/mL. […] As a potent and convenient second-generation anti-CD38 mAb, AB79 SC warranted therapeutic development for the treatment of multiple myeloma (MM).

[3] = test system: newly diagnosed multiple myeloma (NDMM); test: AB79-1002 phase 1b study, AB79 with LenDex or VRd in NDMM: disease response; conditions: total population including both backbone regimens, one patient pending
Source text: This is a Phase 1b, open-label, multicenter study to evaluate the safety, efficacy, tolerability, and pharmacokinetics (PK) of AB79 when added to 1 of 2 standard backbone regimens (lenalidomide plus dexamethasone [LenDex] or bortezomib [Velcade] plus lenalidomide and dexamethasone [VRd]) in adult patients with newly diagnosed multiple myeloma (NDMM) for whom stem cell transplantation (SCT) is not planned as initial therapy. The dose and schedule for the backbone regimens (LenDex and VRd) are given in accordance with product labeling or standard medical practice. Treatment cycles are 28 days until disease progression (PD) or unacceptable toxicity occurs. Treatment may be discontinued for other reasons listed below. AB79 is supplied by the sponsor. Bortezomib, dexamethasone, and lenalidomide are standard-of-care agents that are supplied from commercial sources. […]
Efficacy assessment of tumor response and disease progression are conducted in accordance with IMWG criteria. […] Bone marrow examinations, skeletal surveys, computed tomography (CT) or magnetic resonance imaging ([…]) to evaluate lytic and/or extramedullary plasmacytomas, and serum calcium corrected for albumin are evaluated as necessary based on patient's baseline disease status. […]

## AB79: anti-CD38 monoclonal IgG1 antibody; heavy chain SEQ ID NO:11, light chain SEQ ID NO:12
[1]
  clinical benefit rate (minor response or better): 73%
  disease control rate (stable disease or better): 91%
  preliminary objective response rate (ORR): 36%
[2]
  reduction of levels of peripheral blood NK cells from baseline: > 90%
[3]
  preliminary objective response rate (ORR): 100%
